In patent publication US4451470A, “Analgesic, antagonist, and/or anorectic 14-fluoromorphinans” (E. I. Du Pont de Nemours and Company, priority 1982, dated 1984):
Where two headings read alike, the source gives them in different places.

Assays:
[1] = tested on: Straub tail reaction in mice; assay: Narcotic test (Straub tail reaction); assay type: in vivo, mouse (CF1 S female); settings: 0.4 h, read-out: EFFECT ED50 Straub-tail (Oral)
Description: Narcotic analgesics which have only agonist activity produce in mice an erection and arching of the tail (90° or more) which is referable to spinal cord stimulation. This Straub tail reaction is not produced by other analgesics, including the narcotic antagonists.
The method used was modified from Shemano, I., and Wendel, H., Tox. Appl. Pharm., 6, 334-9 (1964). CF1 S female mice (18-21 g), 10-20 mice per dose, were […] with log scaled doses of analgesic in 1% aqueous methylcellulose. A positive Straub tail response was recorded if a tail was erected 90° or more for 5 seconds at any time within 24 minutes after dosing. A quantal Straub tail ED50 was calculated by the moving average method [Thompson, W. R., Bact. Rev., 11, 115-145 (1947)].

[2] = tested on: writhing syndrome induced by phenylquinone in mice; assay: Analgesic test (phenylquinone writhing, anti-PQW); assay type: in vivo, mouse (female white mice); settings: mouse; oral; phenylquinone i.p.; read-out: EFFECT ED50 Anti-PQW (Oral)
Description: A standard procedure for detecting and comparing the analgesic activity of compounds in this series for which there is good correlation with human efficacy is the standard phenylquinone writhing test modified from Siegmund, et al., Proc. Soc. Exp. Biol. Med., 95, 729 (1957). A test compound suspended in 1% Methocel® was given orally to fasted (17-21 hours) female white mice, 5-20 animals per double blind test. Aqueous phenylquinone (0.1% phenyl-p-benzoquinone) was injected intraperitoneally at 24 minutes later using 0.20 ml per mouse. […] The effective analgesic dose for 50% of the mice (ED50) was calculated by the moving average method of Thompson, W. R., Bact. Rev., 11, 115-145 (1947).

[3] = tested on: Straub tail induced by morphine sulfate in mice; assay: Narcotic antagonist test (mouse anti-Straub tail test against morphine); assay type: in vivo, mouse (female CF1 S); settings: vs 30 mg/kg morphine sulfate i.p.
Description: This property is the basis of a mouse test for narcotic antagonists.
Female CF1 S mice (fasted 17-21 hrs.), 5 per dose, were injected orally or subcutaneously with test drug at 0.67, 2, 6, 18, 54 and 162 mg/kg or other appropriate doses in 0.20 ml 1% Methocel® per mouse. Five minutes later, 30 mg/kg of morphine sulfate in 0.20 ml 1% Methocel® per mouse was given intraperitoneally. Starting ten minutes later, the mice were observed continuously for 5 minutes for evidence of Straub tail. Prevention of Straub tail during this observation period was taken as indication of narcotic antagonist ability.

[4] = tested on: Straub tail induced by morphine in mice; settings: mouse; cited from earlier work
[5] = chronic oral therapy; cited from earlier work
[6] = mouse, oral, within 24 minutes after dosing
[7] = sc, read-out: EFFECT ED50 Anti-Straub Tail (s.c.)

SMILES	ED50 [1, 6] [mg/kg]	ED50 [2] [mg/kg]	ED50 [3, 7] [mg/kg]	ED50 ([1]; Mus musculus, po) [mg/kg]	ED50 ([3]; oral, read-out: EFFECT ED50 Anti-Straub Tail (Oral)) [mg/kg]	prevention of Straub tail induced by morphine [4]	abstinence of opiate addicts [5]
COc1ccc2c3c1O[C@H]1C4(CCC5(F)C(C2)N(CC2CC2)CCC315)OCCO4 (stereo partly shown) [Example 1]	> 135	42	1.7				
COc1ccc2c3c1OC1C(=O)CC[C@@]4(F)[C@@H](C2)N(CC2CC2)CC[C@]314 (stereo partly shown) [Example 2, 17-(Cyclopropylmethyl)-4,5-epoxy-14-fluoro-3-methoxymorphinan-6-one]		> 135	0.33	> 135			
O=C1CC[C@@]2(F)[C@H]3Cc4ccc(O)c5c4[C@@]2(CCN3CC2CC2)C1O5 (stereo partly shown) [Example 3, 17-(Cyclopropylmethyl)-4,5-epoxy-14-fluoro-3-hydroxymorphinan-6-one]		> 135	0.01	> 135	0.09		
Oc1ccc2c3c1O[C@H]1[C@@H](O)CCC4(F)C(C2)N(CC2CCC2)CCC314 (stereo partly drawn) [Example 6, 17-(Cyclobutylmethyl)-4,5-epoxy-14-fluoro-morphinan-3,6-diol (α-isomer)]	> 135	30.4	0.41				
CN1CC[C@]23c4c5ccc(O)c4OC2C(=O)CC[C@@]3(F)[C@H]1C5 (stereo partly shown) [Example 7, 17-Methyl-14-fluoro-3-hydroxy-4,5-epoxymorphinan-6-one]		2.4	> 81	18.7			
COc1ccc2c3c1O[C@H]1C4(CCC5(F)C(C2)N(CC2CCC2)CCC315)OCCO4 (stereo partly shown) [Example 8]	> 135	11.1	> 135				
COc1ccc2c3c1O[C@H]1C(=O)CCC4(F)C(C2)N(CC2CCC2)CCC314 (stereo partly shown) [Example 9]	> 135	27.6	6				
COc1ccc2c3c1O[C@H]1C4(CCC5(F)C(C2)N(C)CCC315)OCCO4 (stereo partly shown) [Example 10]	> 135	5	> 135				
COc1ccc2c3c1O[C@H]1C(=O)CCC4(F)C(C2)N(C)CCC314 (stereo partly shown) [Example 11]	45	6.3	> 135				
C=CCN1CC[C@]23c4c5ccc(O)c4O[C@H]2C(=O)CC[C@@]3(O)[C@H]1C5 [Naloxone]						prevent the induction of Straub tail	
C=CCN1CC[C@]23c4c5ccc(O)c4O[C@H]2[C@@H](O)C=C[C@H]3[C@H]1C5 [nalorphine]						prevent the induction of Straub tail	
O=C1CC[C@@]2(O)[C@H]3Cc4ccc(O)c5c4[C@@]2(CCN3CC2CC2)[C@H]1O5 [naltrexone]							remain abstinent
